Where two headings read alike, the source gives them in different places.
What was measured:
[1] = Critical micellar concentration (CMC) by ANS fluorescence; format: physicochemical; conditions: for CMC compared with the corresponding native/underivatised saponin: qualitative
Procedure: The critical micellar concentration (CMC) of saponins derived from Saponaria officinalis (SO) (Table A7) and derived from Quillaja saponaria (QS) (Table A8, and Table A9) was determined by the method of DeVendittis et al. (A fluorimetric method for the estimation of the critical micelle concentration of surfactants, Analytical Biochemistry, Volume 115, Issue 2, August 1981, Pages 278-286) as follows:
The emission spectrum of 8-Anilinonaphthalene-1-sulfonic acid (ANS) in either purified water (MQ) or PBS (Dulbecco’s PBS +/+) was determined at dry weight concentrations of saponins ranging from 1 to 1400 µM to cover the range below and above the CMC. Above the CMC, the fluorescence yield of ANS increases and the wavelength of maximum emission decreases due to portioning of the fluorescent dye into micelles. Fluorescence yields were recorded on a Fluoroskan Ascent FL (Thermo Scientific) at an excitation wavelength of 355 nm, and an emission wavelength of 460 nm. 6 µg at a concentration of 75.86 µM of ANS were used per sample and measurement.
The critical micellar concentration (CMC) of saponins was determined by the method of DeVendittis et al. (A fluorimetric method for the estimation of the critical micelle concentration of surfactants, Analytical Biochemistry, Volume 115, Issue 2, August 1981, Pages 278-286) as follows: […]

[2] = test system: human red blood cells; assay: cells; format: cell-based; conditions: Erythrocyte
Procedure: (§1) Cells were pelleted by centrifugation for 10 min, 800xg at RT.

[3] = in vitro; format: cell-based, human; conditions: human red blood cells; read-out: IC50 hemolytic activity
Procedure: as §1

[4] = test system: A431 cells; assay: cells; format: cell-based; conditions: Homo sapiens, A-431, saponin alone, read-out: IC50 toxicity on A431 cells
Procedure: (§2) (FIGS. 66A and 66B). Next toxicity was determined, for this the modified saponins were titrated on HeLa and A431 cells. […] Next toxicity was determined, for this the modified saponins were titrated on HeLa and A431 cells.

[5] = test system: HeLa cells; assay: cells; format: cell-based, human
Procedure: as §2

[6] = test system: A2058 cells (EGFR non-expressing); assay: Cell viability, saponin titration with or without […] EGFdianthin; format: cell-based, human; conditions: saponin as single compound
[7] = test system: A431 cells (EGFR expressing); assay: as above; format: cell-based, human
[8] = test system: HeLa cells; assay: Pilot cell killing bioassay, saponin with or without 1.5 pM dianthin-EGF, 72 h; format: cell-based, human; parameters: key: Cell killing activity (+ or -); Cell killing activity (+ or -)
Procedure: HeLa cells were incubated for 72 h with the following constructs and cell viability before and after the 72 h-incubation was assessed. In the experiments, cells were exposed to 1.5 pM dianthin-EGF conjugate. A negative control were cells incubated with buffer vehicle and 10 microgram/ml saponin, without dianthin-EGF. Cell viability was set to 100% for the control in which both saponin and EGF-dianthin were omitted. […] Cell viability after 72 h was essentially 0%. For the chemically modified saponin variants, 10 microgram/ml saponin was tested in combination with 1.5 pM dianthin-EGF.

[9] = SO saponins, determined in PBS (Table A7)
[10] = SO1831 and Aescin, determined in PBS (Table A11)
[11] = 10 µg/ml SO1861 or SO1861-derivative + […] EGFdianthin
[12] = 10 µg/ml SO1861 or SO1861-derivative alone
[13] = HeLa cells, saponin alone (Table A5), read-out: IC50 nM (Toxicity)

CC(=O)OC1C(C)OC(OC2C(C)OC(OC(=O)[C@]34CCC(C)(C)CC3C3=CCC5[C@@]6(C)CC[C@H](OC7OC(C(=O)NC(C)(CO)CO)C(O)C(OC8OCC(O)C(O)C8O)C7OC7OC(CO)C(O)C(O)C7O)[C@@](C)(CO)C6CC[C@@]5(C)[C@]3(C)C[C@H]4O)C(OC3OC(C)C(OC4OCC(O)C(OC5OC(CO)C(O)C(O)C5O)C4O)C(O)C3O)C2O)C(O)C1OC1OCC(O)C(O)C1O (stereo partly shown) [SO1861-(Ald-OH)-(Glu-AMPD)]
CMC [1, 9]: 50 ± 5 µM | CMC compared with the corresponding native/underivatised saponin [1]: lower CMC values

Aescin [Aescin (95%), reference compound]
CMC [1, 10]: 130 ± 13 µM

CC[C@H](C)[C@H](C[C@H](O)CC(=O)OC1C(C)OC(OC(=O)[C@]23CCC(C)(C)CC2C2=CCC4[C@@]5(C)CC[C@H](OC6OC(C(=O)NC(C)(CO)CO)C(O)C(OC7OCC(O)C(O)C7O)C6OC6OC(CO)C(O)C(O)C6O)[C@@](C)(/C=N/NC(=O)CCCCCN6C(=O)C=CC6=O)C5CC[C@@]4(C)[C@]2(C)C[C@H]3O)C(OC2OC(C)C(OC3OCC(O)C(OC4OCC(O)(CO)C4O)C3O)C(O)C2O)C1O)OC(=O)C[C@@H](O)C[C@H](OC1OC(CO)C(O)C1O)[C@@H](C)CC (stereo partly shown) [QS21-(Ald-EMCH)-(Glu-AMPD)]
IC50 ([2]; human red blood cells (Table A12, Example 8), read-out: IC50 nM (hemolysis)): > 300000 nM | IC50 ([2]; human red blood cells, read-out: IC50 hemolytic activity): > 300000 nM | HC50 [3]: > 1 mM | IC50 [4]: > 30 µM | IC50 ([5]; Homo sapiens, HeLa cells (Table A12, Example 8), read-out: IC50 nM (Toxicity)): > 30000 nM | IC50 ([5]; Homo sapiens, HeLa, saponin alone, read-out: IC50 toxicity on HeLa cells): > 30000 nM

CC(=O)OC1C(C)OC(OC2C(C)OC(OC(=O)[C@]34CCC(C)(C)CC3C3=CCC5[C@@]6(C)CC[C@H](OC7OC(C(=O)O)C(O)C(OC8OCC(O)C(O)C8O)C7OC7OC(CO)C(O)C(O)C7O)[C@@](C)(C=O)C6CC[C@@]5(C)[C@]3(C)C[C@H]4O)C(OC3OC(C)C(OC4OCC(O)C(OC5OC(CO)C(O)C(O)C5O)C4O)C(O)C3O)C2O)C(O)C1OC1OCC(O)C(O)C1O (stereo partly shown) [SO1861, reference compound]
general toxicity in absence of EGFdianthin [6]: strong cell viability reduction | general toxicity in absence of EGFdianthin ([7]; saponin as single compound): strong cell viability reduction | Cell killing activity (+ or -) [8, 11]: + | Cell killing activity (+ or -) [8, 12]: - | CMC ([1]; SO1861 saponins): 185 µM | CMC [1, 9]: 185 ± 19 µM

CC(=O)OC1C(C)OC(OC2C(C)OC(OC(=O)C34CCC(C)(C)CC3C3=CCC5C6(C)CCC(OC7OC(C(=O)O)C(O)C(OC8OCC(O)C(O)C8O)C7OC7OC(CO)C(O)C(O)C7O)C(C)(C=NNC(=O)CCOCCOCCOCCOCCN=[N+]=[N-])C6CCC5(C)C3(C)CC4O)C(OC3OC(C)C(OC4OCC(O)C(OC5OC(CO)C(O)C(O)C5O)C4O)C(O)C3O)C2O)C(O)C1OC1OCC(O)C(O)C1O (stereo not shown)
IC50 ([7]; read-out: general toxicity in absence of EGFdianthin, saponin as single compound): > 10 µM | Cell killing activity (+ or -) [8, 12]: -

CC(=O)OC1C(C)OC(OC2C(C)OC(OC(=O)C34CCC(C)(C)CC3C3=CCC5C6(C)CCC(OC7OC(C(=O)NC(C)(CO)CO)C(O)C(OC8OCC(O)C(O)C8O)C7OC7OC(CO)C(O)C(O)C7O)C(C)(C=NNC(=O)CCCCCN7C(=O)C=CC7=O)C6CCC5(C)C3(C)CC4O)C(OC3OC(C)C(OC4OCC(O)C(OC5OC(CO)C(O)C(O)C5O)C4O)C(O)C3O)C2O)C(O)C1OC1OCC(O)C(O)C1O (stereo not shown) [SO1861-(Ald-EMCH)-(Glu-AMPD)]
CMC [1, 9]: > 30 µM | CMC compared with the corresponding native/underivatised saponin [1]: lower CMC values

CC(=O)OC1C(C)OC(OC2C(C)OC(OC(=O)[C@]34CCC(C)(C)CC3C3=CCC5[C@@]6(C)CC[C@H](OC7OC(C(=O)O)C(O)C(OC8OCC(O)C(O)C8O)C7OC7OC(CO)C(O)C(O)C7O)[C@@](C)(CO)C6CC[C@@]5(C)[C@]3(C)C[C@H]4O)C(OC3OC(C)C(OC4OCC(O)C(OC5OC(CO)C(O)C(O)C5O)C4O)C(O)C3O)C2O)C(O)C1OC1OCC(O)C(O)C1O (stereo partly shown) [SO1861-Ald-OH]
CMC [1, 9]: 135 ± 14 µM | CMC compared with the corresponding native/underivatised saponin [1]: higher CMC values | CMC compared with the corresponding native/underivatised saponin ([1]; listed as 6): increased CMC

CC(=O)OC1C(C)OC(OC2C(C)OC(OC(=O)[C@]34CCC(C)(C)CC3C3=CCC5[C@@]6(C)CC[C@H](OC7OC(C(=O)O)C(O)C(OC8OCC(O)C(O)C8O)C7OC7OC(CO)C(O)C(O)C7O)[C@@](C)(/C=N/NC(=O)CCCCCN7C(=O)C[C@H](SCCO)C7=O)C6CC[C@@]5(C)[C@]3(C)CC4O)C(OC3OC(C)C(OC4OCC(O)C(OC5OC(CO)C(O)C(O)C5O)C4O)C(O)C3O)C2O)C(O)C1OC1OCC(O)C(O)C1O (stereo partly shown) [SO1861-Ald-EMCH-blocked]
IC50 [5, 13]: > 100000 nM | CMC [1, 9]: 50 ± 5 µM

CC(=O)OC1C(C)OC(OC2C(C)OC(OC(=O)[C@]34CCC(C)(C)CC3C3=CCC5[C@@]6(C)CC[C@H](OC7OC(C(=O)NCCN8C(=O)C=CC8=O)C(O)C(OC8OCC(O)C(O)C8O)C7OC7OC(CO)C(O)C(O)C7O)[C@@](C)(CO)C6CC[C@@]5(C)[C@]3(C)C[C@H]4O)C(OC3OC(C)C(OC4OCC(O)C(OC5OC(CO)C(O)C(O)C5O)C4O)C(O)C3O)C2O)C(O)C1OC1OCC(O)C(O)C1O (stereo partly shown) [SO1861-(Glu-AEM)-(Ald-OH)]
CMC [1, 9]: 90 ± 10 µM | CMC compared with the corresponding native/underivatised saponin [1]: lower CMC values

CC(=O)On1nnc2cccnc21 [SO1861-Glu-HATU]
Cell killing activity (+ or -) [8, 11]: + | Cell killing activity (+ or -) [8, 12]: -

Aescin [Aescin (98%), reference compound]
CMC [1, 10]: 135 ± 14 µM

CC(=O)OC1C(C)OC(OC2C(C)OC(OC(=O)[C@]34CCC(C)(C)CC3C3=CCC5[C@@]6(C)CC[C@H](OC7OC(C(=O)NC(C)(CO)CO)C(O)C(OC8OCC(O)C(O)C8O)C7OC7OC(CO)C(O)C(O)C7O)[C@@](C)(C=O)C6CC[C@@]5(C)[C@]3(C)C[C@H]4O)C(OC3OC(C)C(OC4OCC(O)C(OC5OC(CO)C(O)C(O)C5O)C4O)C(O)C3O)C2O)C(O)C1OC1OC(C)C(O)C(O)C1O (stereo partly shown) [SO1861-Glu-AMPD]
CMC [1, 9]: 50 ± 5 µM | CMC compared with the corresponding native/underivatised saponin [1]: lower CMC values

QS21 [reference compound]
CMC ([1]; QS saponins (Table A8, MQ)): 49 µM | CMC ([1]; QS saponins, determined in purified water (MQ) (Table A8)): 49 ± 5 µM | CMC ([1]; in MQ (Table A9)): 49 ± 5 µM | CMC ([1]; modified QS21 saponins, determined in PBS (Table A9)): 40 ± 5 µM

CC[C@H](C)[C@H](C[C@H](O)CC(=O)OC1C(C)OC(OC(=O)[C@]23CCC(C)(C)CC2C2=CCC4[C@@]5(C)CC[C@H](OC6OC(C(=O)O)C(O)C(OC7OCC(O)C(O)C7O)C6OC6OC(CO)C(O)C(O)C6O)[C@@](C)(/C=N/NC(=O)CCCCCN6C(=O)C=CC6=O)C5CC[C@@]4(C)[C@]2(C)C[C@H]3O)C(OC2OC(C)C(OC3OCC(O)C(OC4OCC(O)(CO)C4O)C3O)C(O)C2O)C1O)OC(=O)C[C@@H](O)C[C@H](OC1OC(CO)C(O)C1O)[C@@H](C)CC (stereo partly shown) [QS21-Ald-EMCH]
IC50 ([2]; Homo sapiens, read-out: IC50 hemolytic activity, human red blood cells): 30000 nM | IC50 ([5]; Homo sapiens, HeLa, read-out: IC50 nM (Toxicity), HeLa cells (Table A12, Example 8)): > 30000 nM

CC(=O)OC1C(C)OC(OC2C(C)OC(OC(=O)[C@]34CCC(C)(C)CC3C3=CCC5[C@@]6(C)CC[C@H](OC7OC(C(=O)NCCN8C(=O)C=CC8=O)C(O)C(OC8OCC(O)C(O)C8O)C7OC7OC(CO)C(O)C(O)C7O)[C@@](C)(C=O)C6CC[C@@]5(C)[C@]3(C)C[C@H]4O)C(OC3OC(C)C(OC4OCC(O)C(OC5OC(CO)C(O)C(O)C5O)C4O)C(O)C3O)C2O)C(O)C1OC1OCC(O)C(O)C1O (stereo partly shown) [SO1861-Glu-AEM]
IC50 [5, 13]: > 100000 nM | CMC [1, 9]: 45 ± 5 µM | CMC compared with the corresponding native/underivatised saponin [1]: lower CMC values
